Source: patent US10874743B2, “IRAK degraders and uses thereof” (Kymera Therapeutics, Inc., priority 2017, dated 2020)

Each compound was assayed against T1, IRAK4 (Homo sapiens, UniProt Q9NWZ3) (assay: THP-1 degradation assay (western blot, % IRAK4 degraded after 24 hours)). Details: THP-1 cells.
T1 sequence (Q9NWZ3 1-460): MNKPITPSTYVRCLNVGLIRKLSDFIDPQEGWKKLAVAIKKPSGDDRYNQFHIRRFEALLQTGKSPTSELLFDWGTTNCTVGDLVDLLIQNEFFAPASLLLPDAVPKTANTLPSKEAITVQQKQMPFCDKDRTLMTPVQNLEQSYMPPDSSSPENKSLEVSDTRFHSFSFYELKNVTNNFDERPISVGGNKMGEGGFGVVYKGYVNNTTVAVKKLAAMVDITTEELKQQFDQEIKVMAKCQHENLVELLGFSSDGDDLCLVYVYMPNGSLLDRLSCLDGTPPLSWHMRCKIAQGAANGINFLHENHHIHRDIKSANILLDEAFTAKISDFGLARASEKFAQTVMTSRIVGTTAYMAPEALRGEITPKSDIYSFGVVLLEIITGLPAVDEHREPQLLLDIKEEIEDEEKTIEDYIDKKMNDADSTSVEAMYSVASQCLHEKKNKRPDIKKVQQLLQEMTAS
Type: cell-based
Design: endogenous in cells
Method: Compounds were reconstituted in DMSO to make stock solutions at concentration of 60 mM. THP-1 and OCI-LY10 cells were maintained in RPMI-1640 medium containing 10% FBS, 0.5 μM 2-ME or 20% FBS, 55 μM 2-ME, and 1% L-Glutamine respectively.
Cells were seeded into 6-well plates with 5e6 cells per well. 200 μL of diluted compounds were added to cells to the final concentration of 0.003-10 μM. After 4 or 24 hour-incubation at 37° C., cells were collected into 2 mL Eppendorf tubes and centrifuged at 1,000 rpm for 5 min. The cell pellets were washed with 1×DPBS once and resuspended in 60 μL lysis buffer. The cells were lysed on ice for 10 min, then centrifuged at 14,000 rpm for 10 min at 4° C. and the supernatants were collected for western blots. For THP-1 cells, the lysis buffer contained 40 mM pH 7.4 HEPES, 140 mM NaCl, 2.5 mM EDTA, 1% NP-40, 0.1% SDS, and protease inhibitor cocktail (Roche, Cat. No. 05892791001). For OCI-LY10 cells, RIPAbuffer (Thermo Fisher, 89900) with Halt Protease and Phosphatase Inhibitor Cocktail (Thermo Fisher, 78446) was applied.
The protein concentration of cell lysates was quantified with Pierce™ BCA Protein Assay Kit (Pierce, 23227). Albumin standards at different concentrations were prepared, involving 2,000 ug/mL, 1,500 ug/mL, 1,000 ug/mL, 750 ug/mL, 500 ug/mL, 250 ug/mL, 125 ug/mL, and 25 ug/mL. BCA working reagents were prepared by mixing BCA reagent A with reagent B in 50:1 ratio. 200 μL of the BCA working reagents were added to 25 μL of BCA standard or cell lysates in microplate, and mixed thoroughly on a plate shaker for 30 seconds. After incubation at 37° C. for 30 min, the absorbance of samples at 562 nm were measured with EnVision Plate Reader.
Protein lysates were prepared in NuPAGE™ LDS sample buffer and NuPAGE™ sample reducing agent, and incubated at 95° C. for 5 min. For western blots, 20-25 μg of total proteins were resolved in 4-12% Bis-Tris gels (Introgen, WG1403A) or 10% Bis-Tris Midi gels (Invitrogen, WG1202BOX) running with 1×MOPS SDS running buffer (Invitrogen, NP0001) or 1×MES SDS running buffer (Invitrogen, NP0002). The proteins were transferred to low fluorescence PVDF membranes using the Trans-Blot Turbo Transfer System. Membranes were then blocked in Odyssey blocking buffer at RT for 1 h followed by primary incubation at 4° C. overnight. The primary antibodies were IRAK1 rabbit monoclonal antibody (CST, #4504S, 1:500), IRAK3 rabbit polyclonal antibody (CST, #4369, 1:500), IRAK4 rabbit polyclonal antibody (CST, #4363S, 1:1,000), MyD88 rabbit monoclonal antibody (Abcam, Ab133739, 1:2,000), j3-actin mouse monoclonal antibody (Sigma, A5441, 10,000), and Gapdh mouse monoclonal antibody (Millipore, MAB374, 1:5,000). Membranes were washed three times with 1×TBST, and then incubated with IR Dye 800 CW Goat anti-rabbit (Licor, #926-32211) and IR Dye 700 CW Goat anti-mouse (Licor, #926-68070) secondary antibodies in 1:10,000 dilution at RT for 1 h. The western blot images were obtained using Odyssey Imaging System.
THP-1 results at 24 hours. The letter codes indicate the percentage of IRAK4 degraded after 24 hours: A (>50% degradation), B (>20-50% degradation) and C (<20% degradation)
In the case of `COc1cc(Nc2nc(N[C@H]3CCCC[C@H]3N)n3ccnc3c2C(N)=O)cc(OC)c1OCCOCCOCCOCCOCC(=O)N[C@H](C(=O)N1C[C@H](O)C[C@H]1C(=O)NCc1ccc(-c2scnc2C)cc1)C(C)(C)C` [I-164], the “THP-1 24 h % IRAK4 Degradation” value is reported as “C (<20% degradation)”. `O=C1CCC(N2C(=O)c3cccc(NCCOCCOCCOCCOCCN4CCN(CCOCC(F)CNC(=O)c5cnc(Nc6ccc7cnccc7n6)cc5NC5CC5)CC4)c3C2=O)C(=O)N1` (stereo not drawn) [I-47] was tested, and the “THP-1 24 h % IRAK4 Degradation” value was “B (>20-50% degradation)”. For `O=C(COc1cccc2c1C(=O)N(C1CCC(=O)NC1=O)C2=O)NCCNC(=O)[C@H]1CC[C@H](NC(=O)c2cnc(Nc3ccc4cnccc4n3)cc2NC2CC2)CC1` (stereo partly drawn) [I-8], the “THP-1 24 h % IRAK4 Degradation” value was “C (<20% degradation)”. With `Cc1ncsc1-c1ccc(CNC(=O)[C@@H]2C[C@@H](O)CN2C(=O)[C@H](NC(=O)CCCCNC(=O)[C@H]2CC[C@H](NC(=O)c3cnc(Nc4ccc5cnccc5n4)cc3NC3CC3)CC2)C(C)(C)C)cc1` [I-15] the “THP-1 24 h % IRAK4 Degradation” value was “A (>50% degradation)”. For `Cc1ncsc1-c1ccc(CNC(=O)[C@@H]2C[C@@H](O)CN2C(=O)[C@H](NC(=O)CCCCCOCCCCCCCNC(=O)[C@H]2CC[C@H](NC(=O)c3cnc(Nc4ccc5cnccc5n4)cc3NC3CC3)CC2)C(C)(C)C)cc1` [I-14], the “THP-1 24 h % IRAK4 Degradation” value was “C (<20% degradation)”. In the case of `O=C1CCC(N2C(=O)c3cccc(NCCOCCNC(=O)[C@H]4CC[C@H](NC(=O)c5cnc(Nc6ccc7cnccc7n6)cc5NC5CC5)CC4)c3C2=O)C(=O)N1` (stereo partly drawn) [I-25, 6-((1,6-naphthyridin-2-yl)amino)-4-(cyclopropylamino)-N-((1r,4r)-4-((2-(2-((2-(2,6-dioxopiperidin-3-yl)-1,3-dioxoisoindolin-4-yl)amino)ethoxy)ethyl)carbamoyl)cyclohexyl)nicotinamide], the “THP-1 24 h % IRAK4 Degradation” value is reported as “B (>20-50% degradation)”. With `O=C(COc1cccc2c1C(=O)N(C1CCC(=O)NC1=O)C2=O)NCCCCCNC(=O)[C@H]1CC[C@H](NC(=O)c2cnc(Nc3ccc4cnccc4n3)cc2NC2CC2)CC1` (stereo partly drawn) [I-4] the “THP-1 24 h % IRAK4 Degradation” value was “A (>50% degradation)”. In the case of `COc1cc(Nc2nc(N[C@H]3CCCC[C@H]3N)n3ccnc3c2C(N)=O)cc(OCCOCCOCCOCCOCCOCC(=O)N[C@H](C(=O)N2C[C@H](O)C[C@H]2C(=O)NCc2ccc(-c3scnc3C)cc2)C(C)(C)C)c1` [I-163], the “THP-1 24 h % IRAK4 Degradation” value is reported as “C (<20% degradation)”. `O=C1CCC(N2C(=O)c3cccc(NCCCOCCCNC(=O)[C@H]4CC[C@H](NC(=O)c5cnc(Nc6ccc7cnccc7n6)cc5NC5CC5)CC4)c3C2=O)C(=O)N1` (stereo partly drawn) [I-30, 6-((1,6-naphthyridin-2-yl)amino)-4-(cyclopropylamino)-N-((1R,4R)-4-((3-(3-((2-(2,6-dioxopiperidin-3-yl)-1,3-dioxoisoindolin-4-yl)amino)propoxy)propyl)carbamoyl)cyclohexyl)nicotinamide] was tested, and the “THP-1 24 h % IRAK4 Degradation” value was “C (<20% degradation)”. With `O=C(COc1cccc2c1C(=O)N(C1CCC(=O)NC1=O)C2=O)NCCOCCOCCOCCOCC(F)CNC(=O)c1cnc(Nc2ccc3cnccc3n2)cc1NC1CC1` (stereo not drawn) [I-98] the “THP-1 24 h % IRAK4 Degradation” value was “B (>20-50% degradation)”. For `O=C1CCC(N2C(=O)c3cccc(NCCOCCOCCOCC(F)CNC(=O)c4cnc(Nc5ccc6cnccc6n5)cc4NC4CC4)c3C2=O)C(=O)N1` (stereo not drawn) [I-49], the “THP-1 24 h % IRAK4 Degradation” value was “B (>20-50% degradation)”. With `O=C(CN1CCC(NC(=O)c2cnc(Nc3ccc4cnccc4n3)cc2NC2CC2)CC1)NCCOCCOCCNc1cccc2c1C(=O)N(C1CCC(=O)NC1=O)C2=O` (stereo not drawn) [I-19, 6-((1,6-naphthyridin-2-yl)amino)-4-(cyclopropylamino)-N-(1-(2-((2-(2-(2-((2-(2,6-dioxopiperidin-3-yl)-1,3-dioxoisoindolin-4-yl)amino)ethoxy)ethoxy)ethyl)amino)-2-oxoethyl)piperidin-4-yl)nicotinamide] the “THP-1 24 h % IRAK4 Degradation” value was “C (<20% degradation)”. In the case of `COc1cc(Nc2nc(N[C@H]3CCCC[C@H]3N)n3ccnc3c2C(N)=O)cc(OC)c1OCCOCCOCCOCCNc1cccc2c1C(=O)N(C1CCC(=O)NC1=O)C2=O` (stereo partly drawn) [I-200, 5-(((1S,2R)-2-aminocyclohexyl)amino)-7-((4-(2-(2-(2-(2-((2-(2,6-dioxopiperidin-3-yl)-1,3-dioxoisoindolin-4-yl)amino)ethoxy)ethoxy)ethoxy)ethoxy)-3,5-dimethoxyphenyl)amino)imidazo[1,2-c]pyrimidine-8-carboxamide], the “THP-1 24 h % IRAK4 Degradation” value is reported as “C (<20% degradation)”. With `O=C1CCC(N2C(=O)c3cccc(NCCOCCOCCOCCOCCOCC(F)CNC(=O)c4cnc(Nc5ccc6ncsc6c5)cc4NC4CC4)c3C2=O)C(=O)N1` (stereo not drawn) [I-52] the “THP-1 24 h % IRAK4 Degradation” value was “C (<20% degradation)”. `O=C(COc1cccc2c1C(=O)N(C1CCC(=O)NC1=O)C2=O)NCCOCCOCC(F)CNC(=O)c1cnc(Nc2ccc3cnccc3n2)cc1NC1CC1` (stereo not drawn) [I-99] was tested, and the “THP-1 24 h % IRAK4 Degradation” value was “C (<20% degradation)”. For `O=C1CCC(N2C(=O)c3cccc(NCCOCCOCCOCCOCCNC(=O)[C@H]4CC[C@H](NC(=O)c5cnc(Nc6ccc7cnccc7n6)cc5NC5CC5)CC4)c3C2=O)C(=O)N1` (stereo partly drawn) [I-11], the “THP-1 24 h % IRAK4 Degradation” value was “C (<20% degradation)”. In the case of `O=C1CCC(N2C(=O)c3cccc(NCCOCCOCCOCCOCC(F)CNC(=O)c4cnc(Nc5ccc6cnccc6n5)cc4NC4CC4)c3C2=O)C(=O)N1` (stereo not drawn) [I-50], the “THP-1 24 h % IRAK4 Degradation” value is reported as “B (>20-50% degradation)”. With `COc1cc(Nc2nc(N[C@H]3CCCC[C@H]3N)n3ccnc3c2C(N)=O)cc(OC)c1OCCOCCOCCOCC(=O)N[C@H](C(=O)N1C[C@H](O)C[C@H]1C(=O)NCc1ccc(-c2scnc2C)cc1)C(C)(C)C` [I-165] the “THP-1 24 h % IRAK4 Degradation” value was “C (<20% degradation)”. In the case of `CN(CCOCCOCCNc1cccc2c1C(=O)N(C1CCC(=O)NC1=O)C2=O)C(=O)[C@H]1CC[C@H](NC(=O)c2cnc(Nc3ccc4cnccc4n3)cc2NC2CC2)CC1` (stereo partly drawn) [I-40, 6-((1,6-naphthyridin-2-yl)amino)-4-(cyclopropylamino)-N-((1R,4R)-4-((2-(2-(2-((2-(2,6-dioxopiperidin-3-yl)-1,3-dioxoisoindolin-4-yl)amino)ethoxy)ethoxy)ethyl)(methyl)carbamoyl)cyclohexyl)nicotinamide], the “THP-1 24 h % IRAK4 Degradation” value is reported as “C (<20% degradation)”. In the case of `O=C(COc1cccc2c1C(=O)N(C1CCC(=O)NC1=O)C2=O)NCCCOCCCOCC(F)CNC(=O)c1cnc(Nc2ccc3cnccc3n2)cc1NC1CC1` (stereo not drawn) [I-100], the “THP-1 24 h % IRAK4 Degradation” value is reported as “B (>20-50% degradation)”. In the case of `O=C(COc1cccc2c1C(=O)N(C1CCC(=O)NC1=O)C2=O)NCCCCCOCCCCCNC(=O)[C@H]1CC[C@H](NC(=O)c2cnc(Nc3ccc4cnccc4n3)cc2NC2CC2)CC1` (stereo partly drawn) [I-3], the “THP-1 24 h % IRAK4 Degradation” value is reported as “C (<20% degradation)”. For `O=C(COc1cccc2c1C(=O)N(C1CCC(=O)NC1=O)C2=O)NCCOCCNC(=O)[C@H]1CC[C@H](NC(=O)c2cnc(Nc3ccc4cnccc4n3)cc2NC2CC2)CC1` (stereo partly drawn) [I-6], the “THP-1 24 h % IRAK4 Degradation” value was “B (>20-50% degradation)”. In the case of `CC(C)(OCC(=O)NCCOCCOCCNc1cccc2c1C(=O)N(C1CCC(=O)NC1=O)C2=O)C(F)CNC(=O)c1cnc(Nc2ccc3cnccc3n2)cc1NC1CC1` (stereo not drawn) [I-55], the “THP-1 24 h % IRAK4 Degradation” value is reported as “C (<20% degradation)”. `O=C1CCC(N2C(=O)c3cccc(NCCOCCOCCOCCOCCOCC(F)CNC(=O)c4cnc(Nc5ccc6cnccc6n5)cc4NC4CC4)c3C2=O)C(=O)N1` (stereo not drawn) [I-48] was tested, and the “THP-1 24 h % IRAK4 Degradation” value was “B (>20-50% degradation)”.
